# According to ChEMBL document CHEMBL1139158, “Prenyloxyphenylpropanoids as novel lead compounds for the selective inhibition of geranylgeranyl transferase I” (Bioorg Med Chem Lett, 2007):
# pIC50: −log10 of the molar value.
# Experiments:
# [1] = tested on: Protein farnesyltransferase (Homo sapiens); assay: Inhibition of FTase at 100 uM
# [2] = species: Homo sapiens; assay: Inhibition of GGTase 1 at 100 uM
# [3] = Inhibition of GGTase 1; set-up: species or system Homo sapiens
Compound,inhibition [1] [%],inhibition [2] [%],pIC50 [3]
COc1cc(C(=O)O)ccc1OCC=C(C)C,2.4,0,–
CC(C)=CCC/C(C)=C/CC/C(C)=C/COc1ccc(/C=C/C(=O)O)cc1,–,93.5,4.55
COc1cc(/C=C/C(=O)O)ccc1OC/C=C(\C)CC/C=C(\C)CCC=C(C)C,11,83.9,4.18
COc1cc(/C=C/C(=O)O)ccc1OCC=C(C)C,9.3,31,–
COc1cc(C(=O)O)ccc1OC/C=C(\C)CCC=C(C)C,0,0,–
CCOC(=O)/C=C/c1ccc(OC/C=C(\C)CCC=C(C)C)c(OC)c1,5.5,3,–
CC(C)=CCC/C(C)=C/COc1ccc(C(=O)O)cc1,–,0,–
COc1c(OC/C=C(\C)CCC=C(C)C)ccc2ccc(=O)oc12,15.5,34.2,–
